This passage reports IC50 results from US9187472B2 (AbbVie Inc., priority 2012, dated 2015).

For orientation: pIC50 means −log10 of the IC50, conventionally taken in molar units.

Assay [1] deals with NAMPT (human, recombinant, C-terminally His-tagged) (Homo sapiens, UniProt P43490). Kind of assay: Time-Resolved Fluorescence Resonance Energy Transfer (TR-FRET) Binding Assay of NAMPT. As to conditions: without substrates; 6.8 nM NAMPT, 200 nM probe, 3 hours equilibration. The procedure, abridged: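 11-pt half-log compound series; final 6.8 nM NAMPT, 200 nM OG488 nicotinamide-competitive probe, 1 nM Tb-anti-His Ab, 2% DMSO, HEPES pH 7.5/NaCl/MgCl2/DTT/glycerol buffer. 3 h RT equilibration. Em520/Em495 ratio (Ex 337 nm), control-normalized, 4-parameter fit → IC50.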

The test system of a further assay is PC3 cells. Kind of assay: NAMPT Cell Proliferation Assay. In kind it is cell-based. The conditions noted are these: Homo sapiens, PC-3, 120 h, 5 days incubation, cell viability by Cell Titer Glo. The procedure, abridged: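 Cell Titer Glo viability after 5-day exposure (37° C, 5% CO2); PC3, 500 cells/well, RPMI + 10% heat-inactivated FBS, overnight attachment before dosing. Dose range 10 μM to 1×10^−5 μM, 10-fold steps. IC50 = sigmoidal fit of % inhibition.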
A general note: Cellular ATP, detected with luciferase, serves as a proxy for viable cell number.

The target of a further assay is NAMPT (Homo sapiens, UniProt P43490). As to the kind of experiment: TR-FRET Binding Assay of NAMPT with PRPP. As to conditions: with 200 μM PRPP and 2.5 mM ATP; 2 nM NAMPT, 2 nM probe, 16 hours equilibration. The procedure, abridged:
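TR-FRET probe-displacement binding with 2 nM NAMPT, 2 nM probe and 1 nM Tb-anti-His antibody, run in the presence of 200 μM PRPP and 2.5 mM ATP at 2% DMSO. Equilibrated 16 hours before reading so test compounds could undergo enzymatic modification.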
In general terms: TR-FRET usually uses a lanthanide donor and a delayed reading to cut background.

pIC50: −log10 of the molar value.

NAMPT (human, recombinant, C-terminally His-tagged), sequence (P43490 whole entry): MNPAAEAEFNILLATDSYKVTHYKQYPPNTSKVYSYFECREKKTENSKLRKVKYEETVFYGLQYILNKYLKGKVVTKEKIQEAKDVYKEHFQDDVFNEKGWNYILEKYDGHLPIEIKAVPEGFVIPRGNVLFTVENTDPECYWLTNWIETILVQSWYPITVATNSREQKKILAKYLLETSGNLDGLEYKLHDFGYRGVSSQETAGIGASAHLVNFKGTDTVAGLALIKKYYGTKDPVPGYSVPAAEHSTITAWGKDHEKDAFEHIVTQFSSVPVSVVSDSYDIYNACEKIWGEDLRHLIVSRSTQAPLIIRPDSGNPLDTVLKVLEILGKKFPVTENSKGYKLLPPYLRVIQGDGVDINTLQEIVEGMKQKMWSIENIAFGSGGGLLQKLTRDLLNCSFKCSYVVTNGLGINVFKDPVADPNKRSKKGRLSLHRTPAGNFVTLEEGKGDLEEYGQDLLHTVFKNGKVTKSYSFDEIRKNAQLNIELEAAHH
NAMPT, sequence (P43490 whole entry): as above

For the compound `O=C(NCc1ccn2ccnc2c1)Nc1ccc(OC2CN(C(=O)CC3CCOCC3)C2)cc1` [Example 435, 1-(imidazo[1,2-a]pyridin-7-ylmethyl)-3-(4-{[1-(tetrahydro-2H-pyran-4-ylacetyl)azetidin-3-yl]oxy}phenyl)urea], the results for the pIC50 (in assay [1]; with PC3 cells; on NAMPT) were 6.79, 7.69 and 9.72, respectively.
For `CC(C)(C)OC(=O)N1CC[C@@H](Oc2ccc(C(=O)NCc3ccn4ccnc4c3)cc2)C1` [Example 436, tert-butyl (3R)-3-{4-[(imidazo[1,2-a]pyridin-7-ylmethyl)carbamoyl]phenoxy}pyrrolidine-1-carboxylate] the same measures were 5.80, 6.12 and 9.38.
As for `O=C(NCc1ccn2ccnc2c1)c1ccc(C2CCN(C(=O)c3ccccc3)CC2)cc1` [Example 437, 4-(1-benzoylpiperidin-4-yl)-N-(imidazo[1,2-a]pyridin-7-ylmethyl)benzamide], the values for the pIC50 (in assay [1]; in the assay on PC3 cells; at NAMPT) were 7.54, 8.15 and 9.77, respectively.
For `O=C(NCc1ccn2ccnc2c1)Nc1ccc(C2=CCN(C(=O)c3ccccc3)CC2)cc1F` [Example 438, 1-[4-(1-benzoyl-1,2,3,6-tetrahydropyridin-4-yl)-2-fluorophenyl]-3-(imidazo[1,2-a]pyridin-7-ylmethyl)urea] the same measures were 6.84, 7.37 and 9.37.
Take `O=C(NCc1ccn2ccnc2c1)Nc1ccc(C2=CCN(C(=O)CC3CCOCC3)CC2)cc1F` [Example 439, 1-{2-fluoro-4-[1-(tetrahydro-2H-pyran-4-ylacetyl)-1,2,3,6-tetrahydropyridin-4-yl]phenyl}-3-(imidazo[1,2-a]pyridin-7-ylmethyl)urea]: the pIC50 in assay [1] was 6.34; with PC3 cells, 7.43; at NAMPT, 9.19.
In the same order, the values of `O=C(NCc1ccn2ccnc2c1)c1ccc(C2CCN(C(=O)C3CCC(F)(F)CC3)CC2)cc1` [Example 441, 4-{1-[(4,4-difluorocyclohexyl)carbonyl]piperidin-4-yl}-N-(imidazo[1,2-a]pyridin-7-ylmethyl)benzamide] are 6.47, 8.14 and 9.49.
In the same order, the values of `CC(C)C(=O)N1CCC(Oc2ccc(NC(=O)NCc3ccn4ccnc4c3)cc2)CC1` [Example 442, 1-(imidazo[1,2-a]pyridin-7-ylmethyl)-3-(4-{[1-(2-methylpropanoyl)piperidin-4-yl]oxy}phenyl)urea] are 6.52, 7.15 and 9.70.
For `CC[C@H](C)C(=O)N1CCC(Oc2ccc(NC(=O)NCc3ccn4ccnc4c3)cc2)CC1` [Example 443, 1-(imidazo[1,2-a]pyridin-7-ylmethyl)-3-[4-({1-[(2S)-2-methylbutanoyl]piperidin-4-yl}oxy)phenyl]urea] the same measures were 6.86, 8.05 and 9.56.
As for `O=C(NCc1ccn2ccnc2c1)Nc1ccc(OC2CCN(C(=O)CC3CC3)CC2)cc1` [Example 444, 1-(4-{[1-(cyclopropylacetyl)piperidin-4-yl]oxy}phenyl)-3-(imidazo[1,2-a]pyridin-7-ylmethyl)urea], the figures for the pIC50 (in assay [1]; with PC3 cells; on NAMPT) were 6.81, 7.16 and 9.61, respectively.
For `O=C(NCc1ccn2ccnc2c1)Nc1ccc(OC2CCN(C(=O)c3ccccc3)CC2)cc1` [Example 445, 1-{4-[(1-benzoylpiperidin-4-yl)oxy]phenyl}-3-(imidazo[1,2-a]pyridin-7-ylmethyl)urea] the same measures were 6.96, 7.64 and 9.67.
In the same order, the values of `CC(C)OCC(=O)N1CCC(Oc2ccc(NC(=O)NCc3ccn4ccnc4c3)cc2)CC1` [Example 446, 1-(imidazo[1,2-a]pyridin-7-ylmethyl)-3-[4-({1-[(propan-2-yloxy)acetyl]piperidin-4-yl}oxy)phenyl]urea] are 6.41, 7.21 and 9.60.
